Reference: patent US5449662A, “Atrial natriuretic peptide clearance inhibitors which resist degradation” (Scios Nova Inc., priority 1992, dated 1995)

Test system: Female Sprague-Dawley rats
Assay: In vivo diuresis and natriuresis in anesthetized rats
Set-up: species or system rat
Settings: 300 ng/kg/min infusion, mean ± SE, n = 7
Description: The ability of analog #1 to effect diuresis and natriuresis in whole animals was determined as follows. Female Sprague-Dawley rats (230-260 g) anesthetized with inactin (100 mg/kg body weight) were catheterized by placing cannulae in femoral artery (B.P. monitoring), femoral vein (infusion of drugs and saline) and bladders (collection of urine). Post surgery, and prior to administration of test substance, saline was infused at 20 ul/min for 45 min in order to stabilize urine flow. Stabilization of urine flow was determined by collection of urine during several 10 min periods. Once stable urine flow was obtained, three 10 min control periods were collected followed by infusion of test compounds at 20 ul/min for 1 hr after priming with 10 times the infusion dose. Following experimental infusion period, saline was infused at 20 ul/min for 2 additional hr during the recovery phase. The urine volume collected during ten minute collection periods was determined gravimetrically. Urinary sodium excretion UNa V was determined photometrically.
Analog #1 infused at 10 ug/kg/min gives a mean 10-fold increase in urinary sodium excretion and a 2- to 3-fold increase in urinary flow rate. Maximal effects are not observed until the second or third experimental collection period and are sustained through the infusion.

hANP(102-126): human atrial natriuretic peptide 102-126, comparison in rat diuresis/natriuresis (WDSSDRSALLKSKLRALLTAPRSLR; Atrial natriuretic factor; UniProt P01160 102-126, looked up, fragment)
UNa V (urinary sodium excretion), difference between experimental and control periods: 2.24 ± 0.77 uEq/min | V (urine flow), difference between experimental and control periods: 16.8 ± 9.3 µL/min
